The results in this text go back to ChEMBL document CHEMBL1136103, “Structure-based drug design of pyrazinone antithrombotics as selective inhibitors of the tissue factor VIIa complex” (Bioorg Med Chem Lett, 2003).

The target in one experiment is Serine protease 1 (Homo sapiens, UniProt P07477).
For a further experiment, the target named is Coagulation factor X (Homo sapiens, UniProt P00742). The experiment in a line: Inhibitory activity against coagulation factor X.

pIC50: −log10 of the molar value.

Coagulation factor X, sequence (P00742 41-179 limits assumed): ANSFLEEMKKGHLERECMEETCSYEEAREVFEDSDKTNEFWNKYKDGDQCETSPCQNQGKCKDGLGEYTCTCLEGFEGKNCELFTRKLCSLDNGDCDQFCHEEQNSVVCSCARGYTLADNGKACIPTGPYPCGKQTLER
Coagulation factor X, sequence (P00742 235-488 limits assumed): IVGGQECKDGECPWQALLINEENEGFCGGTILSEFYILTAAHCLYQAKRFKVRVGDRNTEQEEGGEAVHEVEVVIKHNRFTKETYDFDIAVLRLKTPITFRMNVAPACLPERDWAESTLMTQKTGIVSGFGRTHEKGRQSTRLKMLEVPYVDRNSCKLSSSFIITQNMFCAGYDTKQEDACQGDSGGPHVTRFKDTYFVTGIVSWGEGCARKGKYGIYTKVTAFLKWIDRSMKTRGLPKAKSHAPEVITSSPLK
Serine protease 1, sequence (P07477 whole entry): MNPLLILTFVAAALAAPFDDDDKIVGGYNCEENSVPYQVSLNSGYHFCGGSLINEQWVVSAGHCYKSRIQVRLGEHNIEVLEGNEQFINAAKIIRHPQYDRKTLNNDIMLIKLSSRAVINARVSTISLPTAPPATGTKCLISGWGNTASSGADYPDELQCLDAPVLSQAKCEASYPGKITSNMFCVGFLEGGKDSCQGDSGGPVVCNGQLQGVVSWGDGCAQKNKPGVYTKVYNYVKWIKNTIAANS
Description for Serine protease 1: Inhibitory activity against trypsin

As to `N=C(N)NCCC[C@H](NC(=O)Cn1c(Cc2ccccc2)c(Cl)nc(NCCc2ccccc2)c1=O)C(=O)c1nccs1`, at Serine protease 1, the pIC50 is 6.33. `CC(C)Nc1nc(Cl)c(-c2cc(N)cc(C(=O)O)c2)n(CC(=O)NCc2ccc(C(=N)N)cc2)c1=O`: the pIC50 at Serine protease 1 is 7.19; against Coagulation factor X, under 4.00. `N=C(N)c1ccc(CNC(=O)Cn2c(-c3cccc(N)c3)c(Cl)nc(NC3CCC3)c2=O)cc1`: the values for the pIC50 at Serine protease 1 and at Coagulation factor X were 7.49 and under 4.00, respectively. Take `N=C(N)NCCC[C@H](NC(=O)Cn1c(-c2ccccc2)c(Cl)nc(NCCc2ccccc2)c1=O)C(=O)c1nccs1`: the results for the pIC50 at Serine protease 1 and against Coagulation factor X were 6.38 and 5.85, respectively.
